In patent publication US11524966B1 (Valo Early Discovery, Inc., priority 2017, dated 2022):

molecular target: T1, USP28 (His-tagged USP28-FL-mammalian) (Homo sapiens, UniProt Q96RU2); test: Ubiquitin-Rhodamine 110 Assay for USP28 Activity, Example A-1(a); format: biochemical; details: Ubiquitin-Rhodamine 110 assay, Example A-1(a); read-out: USP28 A-1(a) IC50 range
T1 construct: Expression of USP28 (1-1077)-TEV-6*His (pTT5 vector); made in house; host or cells: Expi293f cells (pTT5 vector)
T1 sequence (Q96RU2 1-1077): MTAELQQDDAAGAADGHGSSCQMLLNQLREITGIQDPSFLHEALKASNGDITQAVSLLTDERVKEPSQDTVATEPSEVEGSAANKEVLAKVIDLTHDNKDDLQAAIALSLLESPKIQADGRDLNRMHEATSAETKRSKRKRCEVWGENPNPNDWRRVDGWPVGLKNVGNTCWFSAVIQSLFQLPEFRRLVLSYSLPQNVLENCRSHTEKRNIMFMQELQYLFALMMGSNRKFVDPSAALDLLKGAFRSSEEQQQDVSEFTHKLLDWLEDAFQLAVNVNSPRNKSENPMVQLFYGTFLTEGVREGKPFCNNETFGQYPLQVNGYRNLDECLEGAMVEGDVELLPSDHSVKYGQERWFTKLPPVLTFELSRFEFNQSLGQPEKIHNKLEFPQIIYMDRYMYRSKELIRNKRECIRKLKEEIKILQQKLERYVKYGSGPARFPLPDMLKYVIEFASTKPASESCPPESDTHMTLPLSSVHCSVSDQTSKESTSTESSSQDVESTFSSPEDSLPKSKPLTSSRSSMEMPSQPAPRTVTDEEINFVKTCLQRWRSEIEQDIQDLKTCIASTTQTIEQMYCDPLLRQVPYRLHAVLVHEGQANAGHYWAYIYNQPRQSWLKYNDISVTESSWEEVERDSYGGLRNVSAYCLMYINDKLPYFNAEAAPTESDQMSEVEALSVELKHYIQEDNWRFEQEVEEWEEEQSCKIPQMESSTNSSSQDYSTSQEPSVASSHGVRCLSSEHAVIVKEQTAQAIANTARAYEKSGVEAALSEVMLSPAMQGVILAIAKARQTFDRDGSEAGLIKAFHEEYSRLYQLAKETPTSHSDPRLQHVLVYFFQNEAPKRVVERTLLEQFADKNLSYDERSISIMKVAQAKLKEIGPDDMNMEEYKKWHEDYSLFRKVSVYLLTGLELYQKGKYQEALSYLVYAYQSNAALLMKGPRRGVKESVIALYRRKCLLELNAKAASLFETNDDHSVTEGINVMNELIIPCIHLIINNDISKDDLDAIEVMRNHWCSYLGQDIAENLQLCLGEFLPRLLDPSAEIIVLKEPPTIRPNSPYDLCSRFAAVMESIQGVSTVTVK
Method: Example A-1(a): Biochemical Assay: Ubiquitin-Rhodamine 110 Assay for USP28 Activity
The assay was performed in a final volume of 9 μL in assay buffer containing 20 mM Tris-HCl (pH 8.0, (1M Tris-HCl, pH 8.0 solution; Corning 46-031-CM)), 3 mM BME (2-Mercaptoethanol; Sigma 63689-25ML-F), 0.03% BGG (0.22 μM filtered, Sigma, G7516-25G), and 0.01% Triton X-100 (Sigma, T9284-10L). Nanoliter quantities of 10-point, 3-fold serial dilution in DMSO was pre-dispensed into 1536 assay plates (Corning, #3724BC) for a final test concentration of 25 μM to 1.3 nM, top to lowest dose, respectively. Enzyme USP28, construct His-tagged USP28-FL-mammalian, (protein expression and purification procedure described below). Concentration and incubation times were optimized for the maximal signal-to-background while maintaining initial velocity conditions at a fixed substrate concentration. The final concentration of the enzyme in the assay was 75 μM. Final substrate (Ub-Rh110; Ubiquitin-Rhodamine 110, UbiQ-126) concentration was 25 nM with [Ub-Rh110]<<Km. 3 μL of 2× enzyme was added to assay plates (pre-stamped with compound) preincubated with […] for 30 minutes and then 3 μL of 2×Ub-Rh110 was added to assay plates. Plates were incubated for 45 minutes at room temperature before addition of 3 μL of stop solution (final concentration of 10 mM citric acid (Sigma, 251275-500G)). Fluorescence was read on the Envision (Excitation at 485 nm and Emission at 535 nm; Perkin Elmer) or on the PheraSTAR (Excitation at 485 nm and Emission at 535 nm; BMG Labtech).
Procedure for the Protein Expression and Purification for Construct His-Tagged USP28-FL-Mammalian
Expression of USP28 (1-1077)-TEV-6*His (pTT5 vector) was carried out in Expi293f cells (sequence derived from uniprot ID: Q96RU2-1). Cells were re-suspended in lysis buffer B 50 mM Bicine, pH 8.0, 20 mM NaCl, 5% glycerol, 0.1% CHAPS, 5 mM β-ME, 1 mM PMSF, 1 ug/ml Leupeptin, 1 ug/ml Pepstatin) and lysed by sonication. Insoluble material was removed by centrifugation and the supernatant was loaded onto a Ni-NTA column (GE Healthcare) equilibrated with Ni Buffer A (50 mM Bicine, pH 8.0, 20 mM NaCl, 5% glycerol, 0.1% CHAPS, 5 mM β-ME.) and washed with Ni Buffer A+20 mM imidazole until A280 reached baseline. The protein was eluted with Ni Buffer B (50 mM Bicine, pH 8.0, 20 mM NaCl, 5% glycerol, 0.1% CHAPS, 5 mM β-ME, 300 mM imidazole.). The protein was further purified using a Superdex™ 200 10/300 GL column (GE Healthcare) equilibrated with 50 mM Bicine, pH 8.0, 20 mM NaCl, 5% glycerol, 0.1% CHAPS, 5 mM β-ME. The protein was concentrated to 2.5 mg ml^−1, flash-frozen in liquid N2 and stored at −80° C.
For assay formats Example A-1(a), A-1(b), and A-2, data were reported as percent inhibition compared with control wells based on the following equation: % inh=1−((FLU−AveLow)/(AveHigh−AveLow)) where FLU=measured Fluorescence, AveLow=average Fluorescence of no enzyme control (n=16), and AveHigh=average Fluorescence of DMSO control (n=16). IC50 values were determined by curve fitting of the standard 4 parameter logistic fitting algorithm included in the Activity Base software package: IDBS XE Designer Model 205. Data is fitted using the Levenburg Marquardt algorithm.

SMILES	IC50 [nM]
Cc1ccc2c(N)c(C(=O)N[C@H]3COc4cc(N5CC[C@]6(C5)OCC[C@H]6N)ccc4C3)sc2n1 [Example 410, 3-amino-N-[(3R)-7-[(4R,5R)-4-amino-1-oxa-7-azaspiro[4.4]nonan-7-yl]-3,4-dihydro-2H-1-benzopyran-3-yl]-6-methylthieno[2,3-b]pyridine-2-carboxamide]	1 to 50
Cc1ccc2c(N)c(C(=O)N[C@H]3COc4nc(N5C[C@@H](N)[C@H](C(F)F)C5)ccc4C3)sc2n1 [Example 379, 3-amino-N-[(3R)-7-[(3S,4R)-3-amino-4-(difluoromethyl)pyrrolidin-1-yl]-2H,3H,4H-pyrano[2,3-b]pyridin-3-yl]-6-methylthieno[2,3-b]pyridine-2-carboxamide]	200 to 2000
Cc1ccc2c(N)c(C(=O)N[C@H]3CCc4nc(N5C[C@H]6COC[C@@H](C5)[C@H]6N)ccc4C3)sc2n1 [Example 396, 3-amino-6-methyl-N-[(6S)-2-[(1R,5S,9r)-9-amino-3-oxa-7-azabicyclo[3.3.1]nonan-7-yl]-5,6,7,8-tetrahydroquinolin-6-yl]thieno[2,3-b]pyridine-2-carboxamide]	50 to 200
CCn1ccc2cc(C(=O)N[C@H]3CCc4nc(N5C[C@H](NC)[C@@H](OC)C5)ccc4C3)cnc21 [Example 402, 1-ethyl-N-[(6S)-2-[(3S,4S)-3-methoxy-4-(methylamino)pyrrolidin-1-yl]-5,6,7,8-tetrahydroquinolin-6-yl]-1H-pyrrolo[2,3-b]pyridine-5-carboxamide]	200 to 2000
Cc1ccc2c(N)c(C(=O)N[C@H]3CCc4nc(N5CC[C@@]6(C5)OCC[C@@H]6N)ccc4C3)sc2n1 [Example 407, 3-amino-N-[(6S)-2-[(4S,5S)-4-amino-1-oxa-7-azaspiro[4.4]nonan-7-yl]-5,6,7,8-tetrahydroquinolin-6-yl]-6-methylthieno[2,3-b]pyridine-2-carboxamide]	50 to 200
CO[C@]12CCN[C@@H]1CN(c1ccc3c(n1)CC[C@H](NC(=O)c1sc4nc(C)ccc4c1N)C3)C2 [Example 435, N-[(6S)-2-[(3aS,6aR)-3a-methoxy-octahydropyrrolo[2,3-c]pyrrol-5-yl]-5,6,7,8-tetrahydroquinolin-6-yl]-3-amino-6-methylthieno[2,3-b]pyridine-2-carboxamide]	50 to 200
Cc1ccc2c(N)c(C(=O)N[C@H]3CCc4cc(N5CCNCC5)ncc4C3)sc2n1 (single isomer, unassigned) [Example 32-1]	50 to 200
Cc1ccc2c(N)c(C(=O)N[C@H]3COc4cc(N5CC6CNCC(C5)C6(F)F)ncc4C3)sc2n1 [Example 114, 3-amino-N-[(3R)-7-{9,9-difluoro-3,7-diazabicyclo[3.3.1]nonan-3-yl}-2H,3H,4H-pyrano[3,2-c]pyridin-3-yl]-6-methylthieno[2,3-b]pyridine-2-carboxamide]	1 to 50
CO[C@H]1CN(c2cc3c(cn2)C[C@@H](NC(=O)c2sc4nc(C)ccc4c2N)CO3)C[C@@H]1N [Example 179, 3-amino-N-[(3R)-7-[(3S,4S)-3-amino-4-methoxypyrrolidin-1-yl]-2H,3H,4H-pyrano[3,2-c]pyridin-3-yl]-6-methylthieno[2,3-b]pyridine-2-carboxamide]	1 to 50
Cc1ccc2c(N)c(C(=O)N[C@H]3CCc4nc(N5C[C@H]6CCN[C@@H](C5)C6(F)F)ccc4C3)sc2n1 [Example 368, 3-amino-N-[(6S)-2-[(1S,5R)-9,9-difluoro-2,7-diazabicyclo[3.3.1]nonan-7-yl]-5,6,7,8-tetrahydroquinolin-6-yl]-6-methylthieno[2,3-b]pyridine-2-carboxamide]	1 to 50
Cc1cc(C)c2c(N)c(C(=O)N[C@@H]3CCc4nc(N5C[C@H](OC(C)C)[C@@H](N)C5)ncc4C3)sc2n1 (single isomer, unassigned) [Example 31-2]	> 2000
Cc1ccc2c(N)c(C(=O)N[C@H]3COc4cc(N5CC[C@@]6(C5)OCC[C@@H]6N)ccc4C3)sc2n1 [Example 411, 3-amino-N-[(3R)-7-[(4S,5S)-4-amino-1-oxa-7-azaspiro[4.4]nonan-7-yl]-3,4-dihydro-2H-1-benzopyran-3-yl]-6-methylthieno[2,3-b]pyridine-2-carboxamide]	1 to 50
Cc1ccc2c(N)c(C(=O)N[C@H]3CCc4nc(N5C[C@@H](N)[C@H](C(F)F)C5)ncc4C3)sc2n1 [Example 381, 3-amino-N-[(6S)-2-[(3S,4R)-3-amino-4-(difluoromethyl)pyrrolidin-1-yl]-5,6,7,8-tetrahydroquinazolin-6-yl]-6-methylthieno[2,3-b]pyridine-2-carboxamide]	200 to 2000
Cc1ccc2c(N)c(C(=O)N[C@H]3CCc4cc(N5C[C@@H](CF)[C@@H](N)C5)ccc4C3)sc2n1 [Example 436, 3-amino-N-[(2S)-6-[(3R,4R)-3-amino-4-(fluoromethyl)pyrrolidin-1-yl]-1,2,3,4-tetrahydronaphthalen-2-yl]-6-methylthieno[2,3-b]pyridine-2-carboxamide]	1 to 50
CCn1ccc2cc(C(=O)N[C@H]3CCc4nc(N5C[C@H](N)C6(COC6)C5)ccc4C3)cnc21 [Example 403, N-[(6S)-2-[(8R)-8-amino-2-oxa-6-azaspiro[3.4]octan-6-yl]-5,6,7,8-tetrahydroquinolin-6-yl]-1-ethyl-1H-pyrrolo[2,3-b]pyridine-5-carboxamide]	> 2000
Cc1ccc2c(N)c(C(=O)N[C@H]3COc4nc(N5C[C@H](C(F)F)[C@@H](N)C5)ccc4C3)sc2n1 [Example 378, 3-amino-N-[(3R)-7-[(3R,4S)-3-amino-4-(difluoromethyl)pyrrolidin-1-yl]-2H,3H,4H-pyrano[2,3-b]pyridin-3-yl]-6-methylthieno[2,3-b]pyridine-2-carboxamide]	50 to 200
